# Patent US12479847B2 (DANA-FARBER CANCER INSTITUTE, INC., priority 2019, dated 2025)
# Read-outs that look alike come from different tables or passages of the source.
# How the values were obtained:
# Assay in all cases: KINOMEscan (ScanMAX) kinase profiling
# Format in all cases: binding
# [1] = molecular target: T1, panel of 468 kinases (Homo sapiens, UniProt Q9BYT3); conditions: STK33; 1 μM; read-out: % control
# T1 construct: purchased KINOMEscan (ScanMAX) service
# Procedure: (§1) The kinase selectivity of inventive compounds 12, 75, and 77 was evaluated by KINOMEscan®. KINOMEscan® (ScanMAX™) analysis was performed against a near comprehensive panel of 468 kinases. The control percentage (% control) for inventive compounds at 1 μM in DMSO was determined by Equation 1: % control=(inventive compound−positive control)/(negative control−positive control)×100%, Equation 1
# (§2) wherein the positive control is a compound with a % control value of 0% relative light units (RLU), and the negative control (i.e., DMSO) has % control value of 100% RLU. The enzyme selectivity in the present invention is defined as follows: inventive compounds are considered active for an enzyme when the observed % control is less than 35% (<35%).
# [2] = molecular target: T2, panel of 468 kinases (Homo sapiens, UniProt P49759); conditions: CLK1; 1 μM; read-out: % control
# T2 construct: purchased KINOMEscan (ScanMAX) service
# Procedure: as §1, §2
# [3] = molecular target: T3, panel of 468 kinases (Homo sapiens, UniProt P00533, G719S); conditions: EGFR(G719S); 1 μM; read-out: % control
# T3 construct: purchased KINOMEscan (ScanMAX) service
# Procedure: as §1, §2
# [4] = molecular target: T4, panel of 468 kinases (Homo sapiens, UniProt Q8TDX7); conditions: NEK7; 1 μM; read-out: % control
# T4 construct: purchased KINOMEscan (ScanMAX) service
# Procedure: as §1, §2
# [5] = molecular target: T5, panel of 468 kinases (Homo sapiens, UniProt P23458); conditions: 1 μM, read-out: % control
# T5 construct: purchased KINOMEscan (ScanMAX) service
# Procedure: as §1, §2
# [6] = molecular target: T6, panel of 468 kinases (Homo sapiens, UniProt Q8N752); conditions: CSNK1A1L; 1 μM; read-out: % control
# T6 construct: purchased KINOMEscan (ScanMAX) service
# T6 sequence (Q8N752 1-337): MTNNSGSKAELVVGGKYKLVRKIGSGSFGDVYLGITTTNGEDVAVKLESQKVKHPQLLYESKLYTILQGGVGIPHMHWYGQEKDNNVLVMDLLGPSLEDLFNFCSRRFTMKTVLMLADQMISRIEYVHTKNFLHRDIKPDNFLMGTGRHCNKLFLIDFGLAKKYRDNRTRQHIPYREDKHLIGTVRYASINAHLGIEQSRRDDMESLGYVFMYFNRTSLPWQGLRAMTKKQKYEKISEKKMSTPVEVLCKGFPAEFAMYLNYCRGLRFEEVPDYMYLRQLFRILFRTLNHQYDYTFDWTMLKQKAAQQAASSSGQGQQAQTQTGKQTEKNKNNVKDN
# Procedure: as §1, §2
# [7] = molecular target: T7, panel of 468 kinases (Homo sapiens, UniProt P10721, D816H); conditions: KIT(D816H); 1 μM; read-out: % control
# T7 construct: purchased KINOMEscan (ScanMAX) service
# Procedure: as §1, §2
# [8] = molecular target: T8, panel of 468 kinases (Homo sapiens, UniProt P23443); conditions: S6K1; 1 μM; read-out: % control
# T8 construct: purchased KINOMEscan (ScanMAX) service
# Procedure: as §1, §2
# [9] = molecular target: T9, panel of 468 kinases (Homo sapiens, UniProt P51817); conditions: PRKX; 1 μM; read-out: % control
# T9 construct: purchased KINOMEscan (ScanMAX) service
# T9 sequence (P51817 1-358): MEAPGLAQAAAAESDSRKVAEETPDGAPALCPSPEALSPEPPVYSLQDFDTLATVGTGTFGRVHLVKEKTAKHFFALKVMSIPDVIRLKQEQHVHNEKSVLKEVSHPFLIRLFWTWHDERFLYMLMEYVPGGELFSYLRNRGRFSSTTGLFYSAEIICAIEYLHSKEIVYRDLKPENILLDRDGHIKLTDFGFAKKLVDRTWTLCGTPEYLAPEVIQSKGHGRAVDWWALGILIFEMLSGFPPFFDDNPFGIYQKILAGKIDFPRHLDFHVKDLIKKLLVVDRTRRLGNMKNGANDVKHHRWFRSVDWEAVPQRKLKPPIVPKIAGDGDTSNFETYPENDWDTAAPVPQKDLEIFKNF
# Procedure: as §1, §2
# [10] = molecular target: T10, panel of 468 kinases (Homo sapiens, UniProt Q59H18); conditions: TNNI3K; 1 μM; read-out: % control
# T10 construct: purchased KINOMEscan (ScanMAX) service
# T10 sequence (Q59H18 1-835): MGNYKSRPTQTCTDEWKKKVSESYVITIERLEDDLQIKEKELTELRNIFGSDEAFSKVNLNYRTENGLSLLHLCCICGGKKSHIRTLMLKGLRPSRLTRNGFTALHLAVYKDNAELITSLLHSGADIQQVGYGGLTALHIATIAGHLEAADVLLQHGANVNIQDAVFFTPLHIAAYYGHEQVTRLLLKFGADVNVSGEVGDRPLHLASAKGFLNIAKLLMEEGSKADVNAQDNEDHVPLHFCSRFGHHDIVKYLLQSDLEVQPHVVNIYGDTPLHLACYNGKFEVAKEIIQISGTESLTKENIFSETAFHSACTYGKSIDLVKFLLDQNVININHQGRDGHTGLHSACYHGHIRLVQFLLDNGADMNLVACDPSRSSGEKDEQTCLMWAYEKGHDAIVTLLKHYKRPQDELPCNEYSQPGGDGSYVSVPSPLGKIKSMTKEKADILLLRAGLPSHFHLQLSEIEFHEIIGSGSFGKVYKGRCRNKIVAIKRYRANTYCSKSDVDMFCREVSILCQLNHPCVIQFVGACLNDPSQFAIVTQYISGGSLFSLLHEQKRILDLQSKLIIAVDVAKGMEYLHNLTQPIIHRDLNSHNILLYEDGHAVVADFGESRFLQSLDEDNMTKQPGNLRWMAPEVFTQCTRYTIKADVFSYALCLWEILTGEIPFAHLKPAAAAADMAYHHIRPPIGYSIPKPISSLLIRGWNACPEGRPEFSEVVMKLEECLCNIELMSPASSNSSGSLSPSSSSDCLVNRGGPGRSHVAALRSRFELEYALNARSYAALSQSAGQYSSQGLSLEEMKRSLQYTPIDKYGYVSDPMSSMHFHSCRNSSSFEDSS
# Procedure: as §1, §2
# [11] = molecular target: T11, panel of 468 kinases (Homo sapiens, UniProt Q9P286); conditions: PAK7; 1 μM; read-out: % control
# T11 construct: purchased KINOMEscan (ScanMAX) service
# Procedure: as §1, §2
# [12] = molecular target: T12, panel of 468 kinases (Homo sapiens, UniProt Q9BUB5); conditions: MKNK1; 1 μM; read-out: % control
# T12 construct: purchased KINOMEscan (ScanMAX) service
# Procedure: as §1, §2
# [13] = molecular target: T13, panel of 468 kinases (Homo sapiens, UniProt P06213); conditions: INSR; 1 μM; read-out: % control
# T13 construct: purchased KINOMEscan (ScanMAX) service
# Procedure: as §1, §2
# [14] = molecular target: T14, panel of 468 kinases (Homo sapiens, UniProt Q13233); conditions: MAP3K1; 1 μM; read-out: % control
# T14 construct: purchased KINOMEscan (ScanMAX) service
# Procedure: as §1, §2
# T8 sequence (P23443 whole entry): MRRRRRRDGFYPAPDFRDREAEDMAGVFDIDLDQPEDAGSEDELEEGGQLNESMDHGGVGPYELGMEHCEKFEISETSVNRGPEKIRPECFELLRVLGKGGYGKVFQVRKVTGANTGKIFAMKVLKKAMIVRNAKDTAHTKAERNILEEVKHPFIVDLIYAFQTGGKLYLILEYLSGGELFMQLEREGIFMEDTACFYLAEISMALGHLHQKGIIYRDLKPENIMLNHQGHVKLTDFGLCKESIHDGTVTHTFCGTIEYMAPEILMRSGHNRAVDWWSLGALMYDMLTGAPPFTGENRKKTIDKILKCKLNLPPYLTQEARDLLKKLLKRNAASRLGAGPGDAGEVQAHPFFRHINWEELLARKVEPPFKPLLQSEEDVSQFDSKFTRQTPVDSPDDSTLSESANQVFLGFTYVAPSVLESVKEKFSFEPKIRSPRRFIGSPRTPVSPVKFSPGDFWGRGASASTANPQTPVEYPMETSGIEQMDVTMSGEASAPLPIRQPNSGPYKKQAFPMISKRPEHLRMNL
# T14 sequence (Q13233 whole entry): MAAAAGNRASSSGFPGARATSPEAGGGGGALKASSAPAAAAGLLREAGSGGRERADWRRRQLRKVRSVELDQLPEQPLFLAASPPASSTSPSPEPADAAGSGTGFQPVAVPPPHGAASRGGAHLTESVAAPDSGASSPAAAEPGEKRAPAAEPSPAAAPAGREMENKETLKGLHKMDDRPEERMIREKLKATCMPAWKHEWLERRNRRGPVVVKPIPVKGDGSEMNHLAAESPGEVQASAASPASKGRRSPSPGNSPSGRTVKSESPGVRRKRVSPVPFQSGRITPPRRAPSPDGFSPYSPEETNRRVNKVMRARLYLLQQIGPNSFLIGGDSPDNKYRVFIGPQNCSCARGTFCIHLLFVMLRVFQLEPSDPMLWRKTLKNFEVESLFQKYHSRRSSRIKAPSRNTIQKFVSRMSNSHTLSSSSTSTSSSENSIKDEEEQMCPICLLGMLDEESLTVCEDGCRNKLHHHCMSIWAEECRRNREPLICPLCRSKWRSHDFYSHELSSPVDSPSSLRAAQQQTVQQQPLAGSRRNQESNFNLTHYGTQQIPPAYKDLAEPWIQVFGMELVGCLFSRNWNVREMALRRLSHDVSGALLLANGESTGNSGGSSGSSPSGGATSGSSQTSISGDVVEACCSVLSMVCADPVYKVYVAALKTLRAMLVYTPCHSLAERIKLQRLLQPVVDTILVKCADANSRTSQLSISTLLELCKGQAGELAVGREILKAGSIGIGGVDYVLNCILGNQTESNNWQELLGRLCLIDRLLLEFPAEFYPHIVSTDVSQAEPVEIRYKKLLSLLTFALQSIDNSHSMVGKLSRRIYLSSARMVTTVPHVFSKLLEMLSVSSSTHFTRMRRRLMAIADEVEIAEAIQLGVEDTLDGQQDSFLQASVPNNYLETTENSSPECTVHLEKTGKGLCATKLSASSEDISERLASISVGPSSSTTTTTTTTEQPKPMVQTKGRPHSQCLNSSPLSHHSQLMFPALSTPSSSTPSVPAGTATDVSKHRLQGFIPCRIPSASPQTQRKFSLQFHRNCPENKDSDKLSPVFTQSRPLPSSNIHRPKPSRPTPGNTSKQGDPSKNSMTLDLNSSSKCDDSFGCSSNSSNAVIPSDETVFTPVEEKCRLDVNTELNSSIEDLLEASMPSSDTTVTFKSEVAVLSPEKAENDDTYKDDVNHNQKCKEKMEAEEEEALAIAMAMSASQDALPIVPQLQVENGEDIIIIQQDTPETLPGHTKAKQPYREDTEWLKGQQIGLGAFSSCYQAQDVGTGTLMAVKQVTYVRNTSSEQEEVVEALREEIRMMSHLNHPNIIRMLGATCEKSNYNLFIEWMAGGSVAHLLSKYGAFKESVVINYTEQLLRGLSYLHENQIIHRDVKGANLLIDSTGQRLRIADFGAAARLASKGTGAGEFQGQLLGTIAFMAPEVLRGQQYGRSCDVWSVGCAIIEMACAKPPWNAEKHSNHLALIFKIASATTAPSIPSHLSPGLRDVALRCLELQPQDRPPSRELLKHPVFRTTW
# T4 sequence (Q8TDX7 whole entry): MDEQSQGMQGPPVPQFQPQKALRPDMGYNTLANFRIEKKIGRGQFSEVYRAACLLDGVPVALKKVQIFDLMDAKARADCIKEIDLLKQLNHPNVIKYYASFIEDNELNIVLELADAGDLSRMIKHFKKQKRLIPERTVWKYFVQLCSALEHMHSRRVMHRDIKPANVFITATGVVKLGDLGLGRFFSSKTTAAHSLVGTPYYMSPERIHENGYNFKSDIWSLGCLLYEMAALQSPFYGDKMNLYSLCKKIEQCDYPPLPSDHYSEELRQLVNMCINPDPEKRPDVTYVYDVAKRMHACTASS
# T5 sequence (P23458 whole entry): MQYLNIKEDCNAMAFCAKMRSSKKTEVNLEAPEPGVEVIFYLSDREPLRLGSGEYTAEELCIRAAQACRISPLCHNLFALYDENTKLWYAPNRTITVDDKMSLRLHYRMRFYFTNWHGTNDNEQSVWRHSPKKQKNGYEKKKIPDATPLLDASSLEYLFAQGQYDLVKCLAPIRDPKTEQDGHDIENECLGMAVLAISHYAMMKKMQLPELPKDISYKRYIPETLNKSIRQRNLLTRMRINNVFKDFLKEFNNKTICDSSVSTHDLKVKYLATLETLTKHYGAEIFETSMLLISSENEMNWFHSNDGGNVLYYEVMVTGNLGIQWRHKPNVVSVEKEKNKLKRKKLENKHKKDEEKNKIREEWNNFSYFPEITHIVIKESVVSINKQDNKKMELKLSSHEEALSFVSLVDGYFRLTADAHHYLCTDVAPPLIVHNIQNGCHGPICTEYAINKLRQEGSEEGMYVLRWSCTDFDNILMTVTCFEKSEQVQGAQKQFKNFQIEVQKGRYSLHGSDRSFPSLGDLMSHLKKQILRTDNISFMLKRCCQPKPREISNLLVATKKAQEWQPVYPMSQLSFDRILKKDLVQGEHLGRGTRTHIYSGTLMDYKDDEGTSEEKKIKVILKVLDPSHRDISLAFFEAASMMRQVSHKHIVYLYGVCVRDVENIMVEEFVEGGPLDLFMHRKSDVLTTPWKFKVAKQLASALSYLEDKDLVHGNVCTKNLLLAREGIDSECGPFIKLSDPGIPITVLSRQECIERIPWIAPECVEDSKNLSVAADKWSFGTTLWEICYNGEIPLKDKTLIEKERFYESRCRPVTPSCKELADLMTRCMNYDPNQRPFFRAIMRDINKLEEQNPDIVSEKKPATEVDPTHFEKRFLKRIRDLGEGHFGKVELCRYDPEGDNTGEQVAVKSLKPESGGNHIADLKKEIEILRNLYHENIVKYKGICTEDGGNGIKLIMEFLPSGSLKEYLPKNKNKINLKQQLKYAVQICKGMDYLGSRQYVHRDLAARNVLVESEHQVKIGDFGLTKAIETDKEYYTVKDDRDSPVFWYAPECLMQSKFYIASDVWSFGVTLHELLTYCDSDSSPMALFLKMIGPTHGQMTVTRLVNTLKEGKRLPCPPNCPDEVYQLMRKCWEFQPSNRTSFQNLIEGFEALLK
# T11 sequence (Q9P286 whole entry): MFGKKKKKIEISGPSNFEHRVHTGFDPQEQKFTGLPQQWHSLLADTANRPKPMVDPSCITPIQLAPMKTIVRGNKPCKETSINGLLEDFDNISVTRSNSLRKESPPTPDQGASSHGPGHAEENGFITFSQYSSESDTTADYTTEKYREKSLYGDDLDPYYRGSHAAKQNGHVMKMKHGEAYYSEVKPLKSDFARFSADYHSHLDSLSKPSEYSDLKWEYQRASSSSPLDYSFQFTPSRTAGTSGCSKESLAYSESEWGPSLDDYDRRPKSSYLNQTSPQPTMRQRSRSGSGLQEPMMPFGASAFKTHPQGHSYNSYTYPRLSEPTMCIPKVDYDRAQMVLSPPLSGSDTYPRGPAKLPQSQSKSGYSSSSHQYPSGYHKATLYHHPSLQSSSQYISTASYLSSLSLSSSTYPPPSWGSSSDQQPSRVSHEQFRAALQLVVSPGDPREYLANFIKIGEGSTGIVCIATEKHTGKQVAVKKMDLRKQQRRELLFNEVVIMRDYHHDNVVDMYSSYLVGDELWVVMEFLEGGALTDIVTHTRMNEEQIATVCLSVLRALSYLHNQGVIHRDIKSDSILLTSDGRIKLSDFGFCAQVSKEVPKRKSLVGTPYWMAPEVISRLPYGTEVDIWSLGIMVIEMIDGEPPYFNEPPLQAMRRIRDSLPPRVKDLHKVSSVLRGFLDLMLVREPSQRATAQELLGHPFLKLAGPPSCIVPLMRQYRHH
# T2 sequence (P49759 whole entry): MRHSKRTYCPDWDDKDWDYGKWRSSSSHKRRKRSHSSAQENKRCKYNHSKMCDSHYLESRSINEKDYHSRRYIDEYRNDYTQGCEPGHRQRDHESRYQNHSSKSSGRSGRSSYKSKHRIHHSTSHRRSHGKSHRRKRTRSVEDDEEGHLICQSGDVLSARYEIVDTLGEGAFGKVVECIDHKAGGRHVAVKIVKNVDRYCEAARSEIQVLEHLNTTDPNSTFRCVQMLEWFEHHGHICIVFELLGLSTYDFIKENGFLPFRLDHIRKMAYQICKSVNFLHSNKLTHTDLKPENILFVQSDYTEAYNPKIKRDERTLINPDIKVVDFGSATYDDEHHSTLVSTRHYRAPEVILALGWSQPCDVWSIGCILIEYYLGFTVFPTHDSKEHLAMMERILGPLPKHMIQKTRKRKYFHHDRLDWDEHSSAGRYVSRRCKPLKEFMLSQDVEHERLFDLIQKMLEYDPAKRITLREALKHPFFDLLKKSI
SMILES,remaining binding at 1 µM [1],remaining binding at 1 µM [2],remaining binding at 1 µM [3],remaining binding at 1 µM [4],remaining binding at 1 µM ([5]; JAK1(JH1domain-catalytic)),remaining binding at 1 µM ([5]; JAK1(JH2domain-pseudokinase)),remaining binding at 1 µM [6],remaining binding at 1 µM [7],remaining binding at 1 µM [8],remaining binding at 1 µM [9],remaining binding at 1 µM [10],remaining binding at 1 µM [11],remaining binding at 1 µM [12],remaining binding at 1 µM [13],remaining binding at 1 µM [14]
"CNc1nc(Nc2ccc(S(=O)(=O)N3CCC(N4CCOCC4)CC3)cc2OC)nc2[nH]cc(Cl)c12 [Compound 12, 5-chloro-N2-(2-methoxy-4-((4-morpholinopiperidin-1-yl)sulfonyl)phenyl)-N4-methyl-7H-pyrrolo[2,3-d]pyrimidine-2,4-diamine]",10%,6.1%,99%,100%,100%,73%,56%,100%,100%,87%,100%,100%,100%,50%,79%
"CNc1nc(Nc2ccc(C(=O)N3CCC(N4CCOCC4)CC3)c3c2OCO3)nc2[nH]cc(Cl)c12 [Compound 75, (7-((5-chloro-4-(methylamino)-7H-pyrrolo[2,3-d]pyrimidin-2-yl)amino)benzo[d][1,3]dioxol-4-yl)(4-morpholinopiperidin-1-yl)methanone]",7.2%,3.4%,100%,99%,100%,64%,70%,99%,63%,92%,100%,97%,100%,24%,82%
"CNc1nc(Nc2ccc(P3(=O)CCN(C4CCOCC4)CC3)cc2OC)nc2[nH]cc(Cl)c12 [Compound 77, 4-(4-((5-chloro-4-(methylamino)-7H-pyrrolo[2,3-d]pyrimidin-2-yl)amino)-3-methoxyphenyl)-1-(tetrahydro-2H-pyran-4-yl)-1,4-azaphosphinane 4-oxide]",6.9%,7.1%,100%,100%,100%,34%,36%,93%,98%,96%,100%,100%,100%,18%,73%
